Experimental data as given in ChEMBL document CHEMBL3044662, “Synthesis and potential antibacterial activity of new rhodanine-3-acetic acid derivatives” (2013).
≈ marks a conversion by molar mass, not a printed value.

Key:
Type in all cases: functional
[1] = tested on: Staphylococcus aureus; test: Antibacterial activity against Staphylococcus aureus subsp. aureus RN4220 assessed as growth inhibition after 20 hr by two-fold serial dilution method; settings: RN4220, 20 h
[2] = tested on: Escherichia coli; test: Antibacterial activity against Escherichia coli CCARM 1924 assessed as growth inhibition after 20 hr by two-fold serial dilution method; settings: CCARM 1924, 20 h
[3] = tested on: Staphylococcus aureus; test: Antibacterial activity against Staphylococcus aureus KCTC 503 assessed as growth inhibition after 20 hr by two-fold serial dilution method; settings: KCTC 503, 20 h
[4] = tested on: Escherichia coli; test: Antibacterial activity against Escherichia coli CCARM 1356 assessed as growth inhibition after 20 hr by two-fold serial dilution method; settings: CCARM 1356, 20 h
[5] = tested on: Staphylococcus aureus; test: Antibacterial activity against methicillin-resistant Staphylococcus aureus CCARM 3167 clinical isolate assessed as growth inhibition after 20 hr by two-fold serial dilution method; settings: CCARM 3167, 20 h
[6] = tested on: Staphylococcus aureus; test: Antibacterial activity against methicillin-resistant Staphylococcus aureus CCARM 3506 clinical isolate assessed as growth inhibition after 20 hr by two-fold serial dilution method; settings: CCARM 3506, 20 h
[7] = tested on: Staphylococcus aureus; test: Antibacterial activity against quinolene-resistant Staphylococcus aureus CCARM 3505 clinical isolate assessed as growth inhibition after 20 hr by two-fold serial dilution method; settings: CCARM 3505, 20 h
[8] = tested on: Staphylococcus aureus; test: Antibacterial activity against quinolene-resistant Staphylococcus aureus CCARM 3519 clinical isolate assessed as growth inhibition after 20 hr by two-fold serial dilution method; settings: CCARM 3519, 20 h

Compound	MIC [1] [µg/mL]	MIC [2] [µg/mL]	MIC [3] [µg/mL]	MIC [4] [µg/mL]	MIC [5] [µg/mL]	MIC [6] [µg/mL]	MIC [7] [µg/mL]	MIC [8] [µg/mL]
O=C(O)CN1C(=O)/C(=C/c2ccc3cc(OCc4ccc(Cl)c(Cl)c4)ccc3c2)SC1=S	> 64	> 64	> 64	> 64	–	–	–	–
O=C(O)CN1C(=O)/C(=C/c2ccc3cc(OCc4ccccc4Cl)ccc3c2)SC1=S	> 64	> 64	> 64	> 64	–	–	–	–
CCn1cc(C(=O)O)c(=O)c2cc(F)c(N3CCNCC3)cc21 [NORFLOXACIN]	2 (≈ 6.26 µM)	16 (≈ 50.1 µM)	2 (≈ 6.26 µM)	16 (≈ 50.1 µM)	8 (≈ 25.1 µM)	4 (≈ 12.5 µM)	> 64	> 64
O=C(O)CN1C(=O)/C(=C/c2ccc3cc(O)ccc3c2)SC1=S	> 64	> 64	> 64	> 64	–	–	–	–
O=C(O)CN1C(=O)/C(=C/c2ccc3cc(OCc4ccc([N+](=O)[O-])cc4)ccc3c2)SC1=S	64 (≈ 133 µM)	> 64	32 (≈ 66.6 µM)	> 64	4 (≈ 8.32 µM)	8 (≈ 16.6 µM)	8 (≈ 16.6 µM)	4 (≈ 8.32 µM)
Cc1ccc(COc2ccc3cc(/C=C4\SC(=S)N(CC(=O)O)C4=O)ccc3c2)cc1	2 (≈ 4.45 µM)	> 64	4 (≈ 8.9 µM)	> 64	2 (≈ 4.45 µM)	4 (≈ 8.9 µM)	4 (≈ 8.9 µM)	8 (≈ 17.8 µM)
O=C(O)CN1C(=O)/C(=C/c2ccc3cc(OCc4c(Cl)cccc4Cl)ccc3c2)SC1=S	> 64	> 64	> 64	> 64	–	–	–	–
CN(C)c1ccc(COc2ccc3cc(/C=C4\SC(=S)N(CC(=O)O)C4=O)ccc3c2)cc1	64 (≈ 134 µM)	> 64	64 (≈ 134 µM)	> 64	> 64	> 64	> 64	> 64
O=C(O)CN1C(=O)/C(=C/c2ccc3cc(OCc4ccc(I)cc4)ccc3c2)SC1=S	> 64	> 64	> 64	> 64	–	–	–	–
N#Cc1ccccc1COc1ccc2cc(/C=C3\SC(=S)N(CC(=O)O)C3=O)ccc2c1	> 64	> 64	> 64	> 64	–	–	–	–
O=C(O)CN1C(=O)/C(=C/c2ccc3cc(OCc4ccc(C(F)(F)F)cc4)ccc3c2)SC1=S	4 (≈ 7.94 µM)	> 64	4 (≈ 7.94 µM)	> 64	2 (≈ 3.97 µM)	2 (≈ 3.97 µM)	64 (≈ 127 µM)	64 (≈ 127 µM)
O=C(O)CN1C(=O)/C(=C/c2ccc3cc(OCc4ccc(F)cc4)ccc3c2)SC1=S	4 (≈ 8.82 µM)	> 64	4 (≈ 8.82 µM)	> 64	4 (≈ 8.82 µM)	2 (≈ 4.41 µM)	4 (≈ 8.82 µM)	4 (≈ 8.82 µM)
O=C(O)CN1C(=O)/C(=C/c2ccc3cc(OCc4cccc(F)c4)ccc3c2)SC1=S	> 64	> 64	> 64	> 64	–	–	–	–
N#Cc1ccc(COc2ccc3cc(/C=C4\SC(=S)N(CC(=O)O)C4=O)ccc3c2)cc1	> 64	> 64	> 64	> 64	–	–	–	–
O=C(O)CN1C(=O)/C(=C/c2ccc3cc(OCc4ccc(Cl)cc4)ccc3c2)SC1=S	2 (≈ 4.26 µM)	> 64	4 (≈ 8.51 µM)	> 64	2 (≈ 4.26 µM)	2 (≈ 4.26 µM)	4 (≈ 8.51 µM)	4 (≈ 8.51 µM)
O=C(O)CN1C(=O)/C(=C/c2ccc3cc(OCc4cccc(C(F)(F)F)c4)ccc3c2)SC1=S	> 64	> 64	> 64	> 64	–	–	–	–
COc1ccc(COc2ccc3cc(/C=C4\SC(=S)N(CC(=O)O)C4=O)ccc3c2)cc1	4 (≈ 8.59 µM)	> 64	8 (≈ 17.2 µM)	> 64	2 (≈ 4.3 µM)	2 (≈ 4.3 µM)	–	8 (≈ 17.2 µM)
COc1ccc(COc2ccc3cc(/C=C4\SC(=S)N(CC(=O)O)C4=O)ccc3c2)cc1OC	4 (≈ 8.07 µM)	> 64	8 (≈ 16.1 µM)	> 64	8 (≈ 16.1 µM)	8 (≈ 16.1 µM)	8 (≈ 16.1 µM)	8 (≈ 16.1 µM)
O=C(O)CN1C(=O)/C(=C/c2ccc3cc(OCc4ccccc4)ccc3c2)SC1=S	64 (≈ 147 µM)	> 64	64 (≈ 147 µM)	> 64	64 (≈ 147 µM)	64 (≈ 147 µM)	64 (≈ 147 µM)	64 (≈ 147 µM)
Cc1ccc(COc2ccc3cc(/C=C4\SC(=S)N(CC(=O)O)C4=O)ccc3c2)cc1C	> 64	> 64	> 64	> 64	–	–	–	–
COc1cccc(COc2ccc3cc(/C=C4\SC(=S)N(CC(=O)O)C4=O)ccc3c2)c1	> 64	> 64	> 64	> 64	–	–	–	–
O=C(O)CN1C(=O)/C(=C/c2ccc3cc(OCc4cccc(Br)c4)ccc3c2)SC1=S	32 (≈ 62.2 µM)	> 64	64 (≈ 124 µM)	> 64	64 (≈ 124 µM)	64 (≈ 124 µM)	> 64	> 64
O=C(O)CN1C(=O)/C(=C/c2ccc3cc(OCc4ccc(Br)cc4)ccc3c2)SC1=S	2 (≈ 3.89 µM)	> 64	2 (≈ 3.89 µM)	> 64	1 (≈ 1.94 µM)	1 (≈ 1.94 µM)	4 (≈ 7.78 µM)	4 (≈ 7.78 µM)
O=C(O)CN1C(=O)/C(=C/c2ccc3cc(OCc4cccc(Cl)c4)ccc3c2)SC1=S	> 64	> 64	> 64	> 64	–	–	–	–
Cc1onc(-c2ccccc2)c1C(=O)N[C@@H]1C(=O)N2[C@@H]1SC(C)(C)[C@@H]2C(=O)O [OXACILLIN]	1 (≈ 2.49 µM)	> 64	1 (≈ 2.49 µM)	> 64	> 64	> 64	1 (≈ 2.49 µM)	1 (≈ 2.49 µM)
O=C(O)CN1C(=O)/C(=C/c2ccc3cc(OCc4ccccc4Br)ccc3c2)SC1=S	> 64	> 64	> 64	> 64	–	–	–	–
O=C(O)CN1C(=O)/C(=C/c2ccc3cc(OCc4ccc(Cl)cc4Cl)ccc3c2)SC1=S	> 64	> 64	> 64	> 64	–	–	–	–
O=C(O)CN1C(=O)CSC1=S [RHODANINE-3-ACETIC ACID]	> 64	> 64	> 64	> 64	–	–	–	–
